One series relates to SCD patients. As to conditions: long term treatment; cited from earlier work.
Another series relates to Mesenteric arteries. Kind of series: Microvascular dilation of perfused mesenteric resistance arteries (pressure myograph). Details: species or system mouse. How it is done:
Mesenteric arteries were removed from terminally anesthetized mice and placed them in ice-cold physiological salt solution (PSS). 4-6 arterial segments from each mouse were used. A segment of mesenteric artery was cannulated and mounted in a video-monitored perfusion system as described (21). Arterial segments were bathed in a 5 ml organ bath containing a PSS maintained at pH 7.4, with pO2 and pCO2 of 160 mm Hg and 37 mm Hg, respectively. Arterial diameter was continuously recorded by video (Living System Instrumentation Inc., Burlington, Vt.). Pressure and flow rates could be changed independently. Diameter changes were measured in each segment when the intraluminal pressure was set at 75 mm Hg in order to measure dilation. Artery viability was tested with potassium-rich solution ([…]; PSS). The endothelium was considered functional when 80% relaxation was obtained with 10^−6 acetylcholine (ACH), after phenylephrine (PE)-induced preconstriction (50% of maximal contraction with KCl 80 mM). A cumulative concentration-response curve to ACH (10^−7-10^−4 M) was constructed after preconstriction. Sodium nitroprusside (SNP, 100 μM) was tested after the ACH curve. Intraluminal flow was then increased to 21 μl/minute and MP were injected in the vessel. A new cumulative concentration-response curve to ACH after was constructed after new PE-induced preconstriction. […]

Another series has as its system SAD mice. As to the kind of experiment: Circulating PS+ MP in platelet-free plasma by FACS (annexin-V labeling), SAD mice. As to conditions: SAD mice, TSP1 injection (1 mg/kg), within 5 minutes, vs control SAD. The series is classed as in vivo, mouse. How it is done: (§1) We characterized the induction of VOC in SAD transgenic mice (18, 19) according to our previously published method, in response to the intravenous administration of TSP1 (1 mg/kg), TSP1-derived peptides 4N1-1 or 4N1-2, or purified erythrocyte MP. Briefly, mice were anesthetized with isoflurane and monitored to prevent any cardiorespiratory depression. Mice were shaved and placed in the decubitus position on a heating blanket (38° C.). We used a Vivid 7 echograph (GE Medical Systems®, Horten, Norway) equipped with a 12-MHz linear transducer (12 L). […] A pulsed Doppler spectrum was recorded and peak systolic, end-diastolic and time-average mean BFV were measured in the renal artery, with Doppler beam angle correction. To calculate cardiac output, spatial flow profiles were analyzed in parasternal long-axis B-mode images of the pulmonary artery and BFV were measured as above. […] Circulating MP were quantified by FACS.
(§2) Netherlands) in the absence or presence of TSP1 (25 μg/ml), or TSP1-derived peptides 4N1-1 or 4N1-2 (25 μM). […] Erythrocytes were immediately separated and supernatant PS^+ MP quantified by FACS. […] MP concentrations were determined as previously described (20). […] MP were analyzed on a Coulter EPICS XL flow cytometer (Beckman Coulter). […] MP-size events were analyzed in FL/FSC fluorescence dot plots to determine annexin-V labeling. […]

The test system of series [1] is wild type mouse erythrocytes. As to the kind of experiment: Echinocyte conversion and MP shedding by isolated erythrocytes (LORCA ektacytometer, microscopy, FACS), wild type. The series is classed as cell-based. As to conditions: under shear, TSP1 (25 μg/ml), within minutes. As for the experimental part: (§3) Mouse blood was obtained through retro-orbital sinus puncture, mixed with anti-coagulant heparin buffer (5 UI/ml), and collected on citrated tubes. Blood diluted 1:1 with PBS (Gibco-Life Sciences) was placed onto histopaque-1083 (Sigma) density gradients for centrifugation (600 g, 25 minutes). Erythrocyte pellets were resuspended, washed in DMEM and stored for up to 4 hours at room temperature. Erythrocyte surface CD47 expression was assessed by FACS. Fresh RBC were washed and blocked with PBS-BSA 5% for 30 min and immunoreacted with mouse-specific fluoroisothiocyanate (FITC)-coupled anti-CD47 monoclonal antibody (clone mIAP301; BD Biosciences, Le Pont de Claix, France), or matched irrelevant IgG2aκ isotype for 45 min in 2% PBS-BSA. Erythrocytes were washed in PBS-BSA 2% prior to FACS analysis. Erythrocyte phenotypes were analyzed by […] electronic microscopy. Briefly, mouse erythrocytes were fixed with glutaraldehyde 1% and paraformaldehyde 4%, dehydrated and embedded in Epon™ epoxy resin. Sections contrasted with uranyl acetate and lead citrate were examined with a JEOL JEM 1010 microscope. Average apparent spicule number was determined by direct counting in 80 to 120 cells per condition.
(§4) To trigger MP shedding, erythrocyte were suspended in polyvinylpyrrolidone (31 mPa.s) and placed in a rotating type LORCA ektacytometer (R&R Mechatronics, Hoorn, The
(§5) Netherlands) in the absence or presence of TSP1 (25 μg/ml), or TSP1-derived peptides 4N1-1 or 4N1-2 (25 μM). Shear rate was applied according to the builder's program (1500 s^−1; 2.5 minutes). Erythrocytes were immediately separated and supernatant PS^+ MP quantified by FACS. Concentrated MP stocks were generated from 10 to 20 ml of supernatant from erythrocytes suspended in RPMI-1640 (4.10^6/ml) and treated with 4N1-1. Suspensions were centrifuged at 400 g for 15 min to discard cells, and ultracentrifuged at 20500 g for 45 min to pellet MP, which were resuspended in filtered (0.2 μm) DMEM and stored at −80° C. MP concentrations were determined as previously described (20). Briefly, MP were labeled with 2 μl FITC-conjugated annexin-V (Roche Diagnostics, France) diluted in 100 μl reaction buffer with 5 mM CaCl2. CaCl2 was omitted in negative controls. MP were analyzed on a Coulter EPICS XL flow cytometer (Beckman Coulter). MP were identified in forward light scatter (FSc) and side-angle light scatter (SSc) intensity dot plots set at logarithmic gain, as events of 0.1-1 μm in diameter. MP-size events were analyzed in FL/FSC fluorescence dot plots to determine annexin-V labeling. MP concentration was determined with respect to calibrated fluorescent microbeads (Flowcount). To determine erythrocyte origin, MP were double labeled with rat PE-Cy7-coupled mouse-specific anti-Ter119 antibody (Biolegend via Ozyme, France), or matched irrelevant IgG2bκ isotype.

Series [2] has as its system wild type mice. Kind of series: Circulating PS+ MP in platelet-free plasma by FACS (annexin-V labeling), wild type mice. It counts as in vivo, mouse. As to conditions: TSP1 injection (1 mg/kg), within 5 minutes, vs control. As for the experimental part: as §1, §2
A further series has as its system SAD transgenic mice. Kind of series: Vaso-occlusive crises in mice: renal artery blood flow velocity by Echo-Doppler, cardiac output, renal histology. The series is classed as in vivo, mouse. As to conditions: for reduction in the mean blood flow velocity of the right renal arteries: TSP1 1 mg/kg intravenous. How it is done: We characterized the induction of VOC in SAD transgenic mice (18, 19) according to our previously published method, in response to the intravenous administration of TSP1 (1 mg/kg), TSP1-derived peptides 4N1-1 or 4N1-2, or purified erythrocyte MP. Briefly, mice were anesthetized with isoflurane and monitored to prevent any cardiorespiratory depression. Mice were shaved and placed in the decubitus position on a heating blanket (38° C.). We used a Vivid 7 echograph (GE Medical Systems®, Horten, Norway) equipped with a 12-MHz linear transducer (12 L). The ultrasound probe was placed on the left side of the abdomen for examination of renal arteries, or in left lateral decubitus for cardiac output acquisition with transducer on the chest. Data were transferred on-line to an EchoPAC ultrasound image analysis workstation (GE Medical Systems®). Two-Dimensional ultrasound imaging of the abdomen in left-sided longitudinal B-mode allowed kidney width and height measurements. Color-coded blood flow detection by Doppler enabled renal arteries to be localized. A pulsed Doppler spectrum was recorded and peak systolic, end-diastolic and time-average mean BFV were measured in the renal artery, with Doppler beam angle correction. To calculate cardiac output, spatial flow profiles were analyzed in parasternal long-axis B-mode images of the pulmonary artery and BFV were measured as above. The following formula was applied: CO=[(V^mean·60)·(π·(Dpa/2^2)], where CO is the cardiac output in ml/minute, V^mean is the mean time-averaged BFV in cm/s and Dpa is the pulmonary artery diameter in cm. Kidney sizes and BFV were determined by the same investigator, as means of 5 to 8 measurements. Repeatability for cardiac output measurements was verified. We controlled and confirmed that kidney size was similar between SAD and wild type mice. After sacrifice, kidneys were dissected, dehydrated, mounted in paraffin, sectioned and stained by Masson trichrome. Vascular congestion was observed by phase-contrast microscopy, as large erythrocyte aggregates occluding kidney capillaries and larger vessels. In some experiments, TSP1 (1 mg/kg) or control BSA (1 mg/kg) were injected. After 5 minutes, mice were terminally anesthetized by pentobarbital overdose. Whole blood was collected through cardiac puncture, centrifuged (400 g, 15 minutes) to eliminate erythrocytes and leukocytes, and double centrifuged (12500 g, 5 minutes) to eliminate platelets with minimal activation. Supernatants were considered platelet-free plasma (PFP). Circulating MP were quantified by FACS.
We evaluated the concept that TSP1 influences VOC during SCD in vivo. We used SAD transgenic mice that express a mutated human hemoglobin β-chain known to cause sickle cell formation and sensitivity to VOC (18, 19).

The test system of the next series is SAD mouse erythrocytes. As to the kind of experiment: Echinocyte conversion and MP shedding by isolated erythrocytes (LORCA ektacytometer, microscopy, FACS), SAD. It counts as cell-based. How it is done:
as §3, §4, §5

The test system of series [3] is wild type mice. As to the kind of experiment: Vaso-occlusive crises in mice: renal artery blood flow velocity by Echo-Doppler (wild type). The series is classed as in vivo, mouse. How it is done:
as §1, with “L). The ultrasound probe was placed on the left side of the abdomen for examination of renal arteries, or in left lateral decubitus for cardiac output acquisition with transducer on the chest. Data were transferred on-line to an EchoPAC ultrasound image analysis workstation (GE Medical Systems®). Two-Dimensional ultrasound imaging of the abdomen in left-sided longitudinal B-mode allowed kidney width and height measurements.” for “L).”

Where [4] appears, read: after intravenous injection (TSP1 1 mg/kg; MP 300.10^3 MP/mouse).
[5] abbreviates: TSP1 and shear stress, vs control (discussion).

Regarding `NC(=O)NO` [hydroxy-urea], in the series on SCD patients, the long term safety entry is listed as “presumptions of carcinogenesis in the long term” and the “proportion of SCD patients in whom treatment is effective” value was “about 40%”.

Take `CC1(C)CC(O)CC(C)(C)N1[O]` [Tempol]: the “effect alone on vessel diameter” value with Mesenteric arteries (Tempol alone, vs control) is recorded as −5 % vessel diameter. In the series on Mesenteric arteries (vessel treated 10 μM, 30 minutes, vs MP alone), the “reduction of the deleterious effects of SAD RBC MP on vasodilation” value is −50%.

As for “TSP1: Human recombinant TSP1 produced by EMP-Genetech (Germany)”, the “increase in circulating PS+ MP” value in the series with SAD mice is on record as 3 fold. Also, in series [1], the “proportion of wild type echinocytes reached” value is given as 30% and the “raise in the proportion of wild type echinocytes” value is on record as “over 10 fold”. Further, in the series on wild type mice [2], the “raise in plasma PS+ MP” value is reported as 3 fold. Further, in the series on SAD transgenic mice (after 5 minutes), the “reduction in the mean blood flow velocity of the right renal arteries” value worked out at 35%. For the same compound, the “reduction in the mean blood flow velocity of the right renal arteries” value in the series on SAD transgenic mice (rapid) is reported as 20%. Besides, in the series with SAD transgenic mice (TSP1 injection, within minutes), the “drop in renal perfusion” value is 30%. For the same compound, in the series on SAD transgenic mice (setting [4]), the “diastolic and mean blood flow velocities” value is given as “dramatically decreased”; the “renal histology after Masson trichrome stain” value was “red blood cells aggregates and vascular congestion”; the “systolic blood flow velocity” value is “unchanged”. The “effect on sickle cells” value with SAD mouse erythrocytes (SAD erythrocytes, TSP1 or peptide) is recorded as “did not affect sickle cells”. In the series with SAD mouse erythrocytes (setting [5]), the “MP shedding by SAD erythrocytes” value is on record as “doubled” and the “proportion of SAD echinocytes” value was “doubled”. For the same compound, the “increase in SAD echinocytes” value with SAD mouse erythrocytes (under shear, TSP1 (25 μg/ml) or peptide (25 μM), vs control) is reported as 50%. Further, in the series with wild type mice [3] (TSP1 1 mg/kg intravenous), the “systolic, diastolic and mean blood flow velocities” value is reported as “remained unchanged”. Moreover, in the series with wild type mice [3] (TSP1 injection), the renal perfusion result is recorded as “did not modify renal perfusion”.

These data come from patent US10139420B2, “Methods for treating vaso-occlusive crisis using non-modified annexin V” (ISNERM (Institut National de la Sante et de la Recherche …, priority 2011, dated 2018).
